We go through three compounds from US10980777B2, “Indole derivatives as histone demethylase inhibitors” (Istituto Europeo di Oncologia S.r.l., priority 2017, dated 2021).

The test system of one test is human leukemia NB4 cells. The test is described as follows: Cell growth, CellTiter-Fluor cell viability assay, NB4. The conditions noted are these: NB-4, 48 h incubation, read-out: IC50 against human leukemia NB4 cells. It counts as cell-based. From the text:
(§1) CellTiter-Flor® (Promega) is as a nonlytic, single-reagent-addition fluorescence assay that measures the relative number of living cells in a culture population after experimental manipulation. The CellTiter-Fluor™ Cell Viability Assay measures the conserved and constitutive protease activity within live cells and therefore acts as a marker for cell viability.
(§2) Human leukemia MV4-11 cells, (obtained from the Deutsche Sammlung von Mikroorganismen und Zellkulturen, ACC 102) or NB4 cells, (obtained from the Deutsche Sammlung von Mikroorganismen und Zellkulturen) in exponential growth, were incubated for 48 h with different concentrations of the inhibitors. After 48 h a volume of CellTiter-Fluor® Reagent equal to one fifth of volume of cell culture medium was added. The content was mixed and incubates for at least 90 min at 37° C. degree to obtain a stable signal. The fluorescence was recorded using an excitation wavelength of 360 nm and an emission at 535 nm. The IC50 was calculated using GraphPad Software.

Test [1] addresses T1, human recombinant KDM1A/CoREST protein (Homo sapiens, UniProt O60341).
T1 construct: made in house; host or cells: E. coli
The test is described as follows: Assay of enzyme inhibition of KDM1A (LSD1), TR-FRET. Format: biochemical. The note with it: 0.25 nM KDM1A/CoREST, 50 nM H3K4 monomethylated peptide, 20 min at RT; read-out: IC50, KDM1A (LSD1) enzyme inhibition. The procedure:
2.1 Assay of Enzyme Inhibition of KDM1A (LSD1)
The KDM1A inhibiting activity was determined using a TR-FRET assay (time resolved fluorescence resonance energy transfer, Lance® Ultra Demethylase technology (Perkin Elmer, Waltham, Mass., USA)), which comprises a Europium chelate donor dye (TRF0404, Perkin Elmer, Waltham, Mass., USA) together with ULight™ (TR0102, Perkin Elmer, Waltham, Mass., USA), a small molecular weight acceptor dye with a red-shifted fluorescent emission, and a biotinylated 21 amino acids histone H3-derived monomethylated peptide (H3K4me) [Lys(Me1)4]-Histone H3 (1-21)-GGK(biotin), (64355, Anaspec, Fremont, Calif., USA) as substrate. The intensity of the light emission is proportional to the level of biotinylated reaction product. The complex of human recombinant KDM1A/CoREST protein was produced in E. coli as separate proteins and co-purified as previously described.(Forneris, F. et al. Trends Biochem, Sci, 2008, 33, 181-189) (Forneris, F. et al. J. Biol. Chem. 2007, 282, 20070-20074).
Demethylase Assay conditions: 0.25 nM KDM1A/CoREST protein and compound in 100% DMSO were added in a final volume of 48 μL assay buffer (Tris HCl 50 mM pH 8.8, NaCl 50 mM, DTT 1 mM, Tween-20 0.01% (by volume)) to each well of a 96 well half area flat bottom white plate (3693 Costar, Sigma-Aldrich, St. Louis, M, USA).
Demethylase reaction was started by the addition of 50 nM histone H3K4 monomethylated. After 20 min at RT, 300 μM tranylcypromine (P8511-1G, Sigma-Aldrich, St. Louis, Mo. 63103) was added to stop the reaction.
Detection step conditions: 10 μL of the assay mixture was transferred from the original plate into a 384 well white plate (6007290 OptiPlate™, Perkin Elmer, Waltham, Mass., USA) and 10 μL of the detection Mix containing 2 nM Eu-antibody and 10 nM U-Light-Streptavidin in 1× Lance Detection Buffer (TRF0404, TR0102, CR97100, Perkin Elmer, Waltham, Mass., USA). The resulting mixture was incubated in the dark for 1 h at RT. Then, TR-FRET signal was read by a fluorimeter (Infinite® F200, Tecan, Männedorf, Switzerland) (Excitation 320 nm, Emission 665 nm and 620 nm, delay time 50 μs, window time 100 μs).
IC50 determination: The inhibitor concentrations ranged from 0.025 to 500 μM (serial 1:3 dilutions). The IC50 was calculated using GraphPad Software.
A general note: In TR-FRET formats the signal depends on donor and acceptor labels being close together.

Test [2] concerns Human leukemia MV4-11 cells. The test is described as follows: Cell growth, CellTiter-Fluor cell viability assay, MV4-11. It counts as cell-based. The note with it: 48 h incubation, read-out: IC50 against human leukemia MV4-11 cells.
Excerpt: as §1, §2

Structures can show the parent of a compound that is named as a salt. A value given as a limit tells only on which side of the number the result lay.

As a reminder, the IC50 is the concentration needed to halve the response being measured. Consider `Cn1c(C(=O)c2cn(CCOc3ccccc3OCC3CCNC3)c3ccccc23)cc2sccc21` (stereo not drawn) [Compound 11, (4-Methylthieno[3,2-b]pyrrol-5-yl)-[1-[2-[2-(pyrrolidin-3-ylmethoxy)phenoxy]ethyl]indol-3-yl]methanone hydrochloride], for which the IC50 is under 10 µM with human leukemia NB4 cells, under 5 µM in test [1] and under 10 µM in test [2].
For `Cn1c(C(=O)c2cn(CCOc3cccc(OC[C@H]4CCNC4)c3)c3ccccc23)cc2sccc21` [Compound 13, (4-methylthieno[3,2-b]pyrrol-5-yl)-[1-[2-[3-[[(3S)-pyrrolidin-3-yl]methoxy]phenoxy]ethyl]indol-3-yl]methanone hydrochloride], the 50% inhibitory concentration (IC50) with human leukemia NB4 cells was under 10 µM; in test [1], under 0.5 µM; in test [2], under 10 µM.
Consider `Cn1c(C(=O)c2cn(CCOc3ccc(OCC4CCNCC4)cc3)c3ccccc23)cc2sccc21` [Compound 19, (4-methylthieno[3,2-b]pyrrol-5-yl)-[1-[2-[4-(4-piperidylmethoxy)phenoxy]ethyl]indol-3-yl]methanone hydrochloride], for which the half-inhibitory concentration (IC50) with human leukemia NB4 cells was under 10 µM; in test [1] it was under 0.5 µM; in test [2], under 10 µM.
